Measurements from patent US20260001868A1, “HETEROCYCLIC COMPOUND CAPABLE OF INHIBITING PRMT5-MTA AND USE THEREOF” (Xizang Haisco Pharmaceutical Co., Ltd., priority 2022, published 2026).
Where two headings read alike, the source gives them in different places.

What was measured:
PRMT5⋅MTA = PRMT5⋅MTA (Homo sapiens (Human), UniProt O14744); assay: PRMT5 MTA enzyme activity test (Alpha detection); assay type: biochemical; settings: PRMT5/MEP50 1 nM with MTA 1 μM
Method: (§1) 1× test buffer (10 mM Tris, 1 mM DTT, 0.01% BSA, 0.01% Tween-20, adjusted to pH 8.0) was prepared. The test compound was dissolved in DMSO to prepare a 10 mM mother liquor, and the mother liquor was diluted to a 100-fold final concentration. 100 nL of the compound was added to each well of the administration group, and 100 nL of DMSO solution was added to blank wells and negative control wells. Then, 5 μL of a solution of PRMT5/MEP50 (BPS, Cat #31921) (final concentration: 1 nM) and MTA (final concentration: 1 μM) was added to the wells of the administration group and negative control wells, and 5 μL of 1× test buffer was added to the blank wells. Incubation was performed at room temperature for 15 minutes. […] 1× Epigenetics buffer (PerkinElmer, Cat #AL008F) was prepared and used for diluting acceptor microbeads and donor microbeads. 15 μL of acceptor microbeads (final concentration: 10 μg/mL; PerkinElmer, Cat #AL150C) and donor microbeads (final concentration: 10 μg/mL; PerkinElmer, Cat #AS106M) were added and incubated at room temperature for 1 hour in the dark. Then, detection was performed using the Alpha module of the reader Enspire microplate.
Based on the obtained data, the inhibition rate was calculated in Excel according to: inhibition rate (%)=(maximum value negative control−detection signal value)/(maximum value negative control−minimum value blank control)×100, and IC50 values were fitted by using XL-Fit.

PRMT5/MEP50 = PRMT5/MEP50 (Homo sapiens (Human), UniProt O14744); assay: PRMT5 enzyme activity test (Alpha detection); assay type: biochemical; settings: PRMT5/MEP50 1 nM, absence of MTA
PRMT5/MEP50, sequence (O14744 whole entry): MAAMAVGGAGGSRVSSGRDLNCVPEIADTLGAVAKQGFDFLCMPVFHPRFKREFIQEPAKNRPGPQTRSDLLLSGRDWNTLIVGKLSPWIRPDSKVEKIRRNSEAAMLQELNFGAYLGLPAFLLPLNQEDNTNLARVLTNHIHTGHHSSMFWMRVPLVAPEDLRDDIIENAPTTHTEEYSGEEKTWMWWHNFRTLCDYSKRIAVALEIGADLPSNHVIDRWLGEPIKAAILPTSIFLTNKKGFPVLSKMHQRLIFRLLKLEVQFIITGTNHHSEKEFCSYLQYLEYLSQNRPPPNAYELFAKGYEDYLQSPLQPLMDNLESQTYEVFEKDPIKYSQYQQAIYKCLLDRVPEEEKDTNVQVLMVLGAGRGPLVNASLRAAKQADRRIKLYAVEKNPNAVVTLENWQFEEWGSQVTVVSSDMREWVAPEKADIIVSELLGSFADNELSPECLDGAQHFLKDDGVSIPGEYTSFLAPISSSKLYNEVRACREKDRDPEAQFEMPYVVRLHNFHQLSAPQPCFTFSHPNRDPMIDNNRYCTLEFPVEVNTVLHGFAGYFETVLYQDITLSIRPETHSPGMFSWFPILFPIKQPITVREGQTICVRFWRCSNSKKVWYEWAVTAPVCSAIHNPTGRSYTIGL
PRMT5/MEP50, sequence (Q9BQA1 whole entry partner): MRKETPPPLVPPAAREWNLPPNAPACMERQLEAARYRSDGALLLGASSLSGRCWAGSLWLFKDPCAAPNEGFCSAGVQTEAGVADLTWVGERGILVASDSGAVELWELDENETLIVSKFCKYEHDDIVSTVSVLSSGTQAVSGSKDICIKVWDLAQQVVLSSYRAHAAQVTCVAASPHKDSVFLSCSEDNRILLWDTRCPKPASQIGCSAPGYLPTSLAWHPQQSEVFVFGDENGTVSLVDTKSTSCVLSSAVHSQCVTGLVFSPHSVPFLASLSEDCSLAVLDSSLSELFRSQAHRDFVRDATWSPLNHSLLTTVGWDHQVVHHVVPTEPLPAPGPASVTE
Method: as §1, with “a” for “a solution of”, “#31921) enzyme solution” for “#31921)”, “nM)” for “nM) and MTA (final concentration: 1 μM)”, “microplate. Based on the obtained data, the inhibition rate was calculated in Excel according to: inhibition rate (%)=(maximum value negative control−detection signal value)/(maximum value negative control−minimum value blank control)×100, and IC50 values were fitted by using XL-Fit.” for “microplate.”

MIAPACA-2 cells = assay: MIAPACA-2 cell proliferation inhibition experiment; assay type: cell-based
Excerpt: (§2) The chemiluminescence readings were detected by a microplate reader.

HCT-116 cells = assay: HCT-116 cell proliferation inhibition experiment; assay type: cell-based
Excerpt: as §2

[1] = test system: SDMA production in HCT-116 cells; assay: SDMA detection in HCT-116 cells; assay type: cell-based; settings: 3 days incubation
Method: HCT-116 cells were cultured in an RPMI 1640 culture medium (ATCC, Cat #30-2001; supplemented with 10% FBS and 1% double antibody) until the confluence reached about 85%, and then the cells were plated. The culture medium was discarded, and the cells were rinse with 1×PBS and digested by trypsin (Gibco, Cat #15400-054). When the cells became round and began to fall off, the digestion was terminated by adding the culture medium. The cells were pipetted, transferred to a sterile centrifuge tube and centrifuged at 1000 rpm for 3 minutes, and after the centrifugation, the supernatant was discarded. The cells were resuspended by adding the culture medium to the centrifuge tube and then counted. According to the counting results, the cell suspension was adjusted to an appropriate concentration and poured into a loading slot. 100 μL of the cell suspension was added to each well of the 96-well plate. The compound was dissolved in DMSO to 10 mM and stored for later use. […] 100 μL of the Immobilon Forte Western HRP substrate (Millipore, Cat #WBLUF0500) was added to each well and incubated with shaking for 15 minutes, followed by chemiluminescence detection using the BMG microplate reader. After data normalization (SDMA reading/SMD3 reading), Graphpad Prism 8.3.0 software was used to plot the data, and the IC50 value was calculated.

[2] = set-up: species or system beagle dogs; settings: dog, in vivo
Method: 10.1 Experimental animals: male beagle dogs, about 8-11 kg, 6 beagle dogs/compound, purchased from Beijing Marshall Biotechnology Co., Ltd.
10.2 Experimental method: On the day of the experiment, (6× number of test compounds (n)) beagle dogs were randomly divided into groups according to their body weights. The animals were fasted but with water available for 12 to 14 h one day before the administration and were fed 4 h after the administration. Administration was carried out according to Table 8.
Before and after the administration, 1 mL of blood was taken from the jugular veins or limb veins, and placed in an EDTAK2 centrifuge tube. Centrifugation was performed at 5000 rpm at 4° C. for 10 min, and the plasma was collected. The blood collection time points for the intravenous administration group and intragastric administration group were 0 min, 5 min, 15 min, 30 min, 1 h, 2 h, 4 h, 6 h, 8 h, 10 h, 12 h and 24 h. Before analysis and detection, all samples were stored at −80° C., and a quantitative analysis of samples was performed using LC-MS/MS.

[3] = test system: SDMA production in HCT-116 MTAP−/− cells; settings: read-out: HCT-116 MTAP−/− SDMA (IC50); 3 days incubation
Method: HCT-116 MTAP−/− cells were cultured in an RPMI 1640 culture medium (ATCC, #30-2001; supplemented with 10% FBS and 1% double antibody) until the confluence reached about 85%, and then the cells were plated. The culture medium was discarded, and the cells were rinse with 1×PBS and digested by trypsin (Gibco, Cat #15400-054). When the cells became round and began to fall off, the digestion was terminated by adding the culture medium. The cells were pipetted, transferred to a sterile centrifuge tube and centrifuged at 1000 rpm for 3 minutes, and after the centrifugation, the supernatant was discarded. The cells were resuspended by adding the culture medium to the centrifuge tube and then counted. According to the counting results, the cell suspension was adjusted to an appropriate concentration and poured into a loading slot. 100 μL of the cell suspension was added to each well of the 96-well plate. The compound was dissolved in DMSO to 10 mM and stored for later use. […] 100 μL of the Immobilon Forte Western HRP substrate (Millipore, Cat #WBLUF0500) was added to each well and incubated with shaking for 15 minutes, followed by chemiluminescence detection using the BMG microplate reader. After data normalization (SDMA reading/SMD3 reading), Graphpad Prism 8.3.0 software was used to plot the data, and the IC50 value was calculated.

[4] = Homo sapiens, MIA PaCa-2, 120 h, read-out: MIAPACA-2 (day 5 GI50)
[5] = day 5, read-out: MIAPACA-2 (day 5 GI50)
[6] = day 10, read-out: MIAPACA-2 (day 10 GI50)

PRMT5⋅MTA, sequence (O14744 whole entry): as the sequence (O14744 whole entry) above
PRMT5⋅MTA, sequence (Q9BQA1 whole entry partner): as the sequence (Q9BQA1 whole entry partner) above

SMILES | GI50 (MIAPACA-2 cells; [4]) [nM] | GI50 (MIAPACA-2 cells; [5]) [nM] | IC50 (PRMT5⋅MTA; read-out: PRMT5•MTA) [nM] | IC50 (PRMT5/MEP50) [nM] | GI50 (MIAPACA-2 cells; [6]) [nM] | also measured
Cn1ncc(-c2ccc3c(=O)[nH]cc(CN)c3c2)c1-c1c(F)c(Cl)cc(OC2CC2)c1C#N [Compound 1, 2-(4-(4-(aminomethyl)-1-oxo-1,2-dihydroisoquinolin-6-yl)-1-methyl-1H-pyrazol-5-yl)-4-chloro-6-cyclopropoxy-3-fluorobenzonitrile] |  |  | 1 to 10 | 10 to 50 |  | 
Cn1ncc(-c2ccc3c(=O)[nH]c(CN)nc3c2)c1-c1c(F)c(Cl)cc(OC2CC2)c1C#N [Compound 5, 2-(4-(2-(aminomethyl)-4-oxo-3,4-dihydroquinazolin-7-yl)-1-methyl-1H-pyrazol-5-yl)-4-chloro-6-cyclopropoxy-3-fluorobenzonitrile] | < 50 |  |  |  |  | GI50 (MIAPACA-2 cells; Homo sapiens, MIA PaCa-2, 240 h, read-out: MIAPACA-2 (day 10 GI50)): < 50 nM
Cn1ncc(-c2ccc3c(=O)[nH]c(CN)nc3c2)c1-c1c(F)c(Cl)cc(OC2CC2)c1C#N [Compound 11, (2S)-2-(4-(2-(aminomethyl)-4-oxo-3,4-dihydroquinazolin-7-yl)-1-methyl-1H-pyrazol-5-yl)-4-chloro-6-cyclopropoxy-3-fluorobenzonitrile] |  | < 50 |  |  | < 50 | 
Cn1ncc(-c2ccc3c(=O)[nH]c(CN)nc3c2)c1-c1c(F)c(Cl)cc(OC2(C)CC2)c1C#N [Compound 14, (2S)-2-(4-(2-(aminomethyl)-4-oxo-3,4-dihydroquinazolin-7-yl)-1-methyl-1H-pyrazol-5-yl)-4-chloro-3-fluoro-6-(1-methylcyclopropoxy)benzonitrile] |  | < 50 |  |  |  | 
Cn1ncc(-c2cc(N3CCC3)c3c(=O)[nH]nc(CN)c3c2)c1-c1c(F)c(Cl)cc(OC2CC2)c1C#N [Compound 22, 2-(4-(4-(aminomethyl)-8-(azetidin-1-yl)-1-oxo-1,2-dihydrophthalazin-6-yl)-1-methyl-1H-pyrazol-5-yl)-4-chloro-6-cyclopropoxy-3-fluorobenzonitrile] | < 50 |  |  |  |  | 
C=Cc1cc(-c2cnn(C)c2-c2c(F)c(Cl)cc(OC3(C)CC3)c2C#N)cc2c(CN)n[nH]c(=O)c12 [Compound 30, (2R)-2-(4-(4-(aminomethyl)-1-oxo-8-vinyl-1,2-dihydrophthalazin-6-yl)-1-methyl-1H-pyrazol-5-yl)-4-chloro-3-fluoro-6-(1-methylcyclopropoxy)benzonitrile] |  | < 50 | < 1 | 1 to 10 | < 50 | IC50 (PRMT5⋅MTA; read-out: IC50 value for PRMT5⋅MTA): 0.8 nM; GI50 (HCT-116 cells; day 5, read-out: HCT-116 (day 5 GI50)): > 500 nM; GI50 (HCT-116 cells; day 10, read-out: HCT-116 (day 10 GI50)): > 500 nM; IC50 [1]: 499 nM; CL ([2]; iv, 5 mg/kg): 0.313 mL/min/kg; AUC0-t ([2]; po, 10 mg/kg): 178.458 µg·h/mL; T1/2 ([2]; po, 10 mg/kg): 16.1 h; GI50 (HCT-116 MTAP−/− cells; read-out: HCT-116 MTAP−/− (day 5 GI50), day 5): 38.2 nM; GI50 (HCT-116 MTAP−/− cells; read-out: HCT-116 MTAP−/− (day 10 GI50), day 10): 19.9 nM; IC50 [3]: 3.39 nM
